Measurements: the NIST ThermoML archive (doi:10.1016/j.fluid.2015.07.012)

Assay: xn = mol fraction of the nth substance listed
Settings: Liquid; for viscosity: Capillary tube (Ostwald / Ubbelohde) method; for mass density: Vibrating tube method

CCCO [propan-1-ol] + O
Settings | mass density, 10000 kPa [kg/m3] | mass density, 20000 kPa [kg/m3] | mass density, 30000 kPa [kg/m3] | mass density, 40000 kPa [kg/m3] | viscosity, 10000 kPa [mPa·s] | viscosity, 20000 kPa [mPa·s] | viscosity, 30000 kPa [mPa·s] | viscosity, 40000 kPa [mPa·s]
373.2 K, x1 = 0.1 | – | – | 911.46 | 916.96 | – | – | 0.455 | 0.463
373.2 K, x1 = 0.2 | – | – | 869.79 | 875.69 | – | – | 0.533 | 0.547
373.2 K, x1 = 0.3 | – | – | 842.03 | 848.33 | – | – | 0.577 | 0.599
373.2 K, x1 = 0.4 | – | – | 820.4 | 827.89 | – | – | 0.57 | 0.6
373.2 K, x1 = 0.6 | – | – | 792.47 | 800.74 | – | – | 0.576 | 0.611
373.2 K, x1 = 0.8 | – | – | 774.18 | 782.84 | – | – | 0.572 | 0.614
373.2 K, x1 = 1 | – | – | 762.28 | 770.94 | – | – | 0.581 | 0.613
476.2 K, x1 = 0.1 | 790.18 | 799.73 | 810.27 | 818.93 | 0.161 | 0.171 | 0.175 | 0.179
476.2 K, x1 = 0.2 | 739.33 | 752.08 | 764.81 | 775.35 | 0.162 | 0.172 | 0.181 | 0.189
476.2 K, x1 = 0.3 | 702.79 | 718.75 | 733.87 | 745.92 | 0.157 | 0.17 | 0.183 | 0.195
476.2 K, x1 = 0.4 | 678.7 | 697.03 | 713.61 | 726.38 | 0.153 | 0.17 | 0.189 | 0.21
476.2 K, x1 = 0.6 | 646.98 | 667.25 | 686.56 | 700.42 | 0.145 | 0.161 | 0.178 | 0.195
476.2 K, x1 = 0.8 | 627.55 | 651.81 | 672.08 | 686.68 | 0.139 | 0.157 | 0.173 | 0.188
476.2 K, x1 = 1 | 612.56 | 640.86 | 662.44 | 677.8 | 0.137 | 0.157 | 0.176 | 0.192
